{
  "source": "paper PMC11445181",
  "about": "(Frontiers in Plant Science, 2024)",
  "target": "T1, LcCOMT (Conioselinum anthriscoides, UniProt A0A0K1YW34)",
  "T1 construct": "full-length cDNA in pET28a, His-tagged, E. coli BL21 (DE3), Ni-agarose purified; homodimer (N-terminal dimerization domain)",
  "T1 sequence (A0A0K1YW34 1-362)": "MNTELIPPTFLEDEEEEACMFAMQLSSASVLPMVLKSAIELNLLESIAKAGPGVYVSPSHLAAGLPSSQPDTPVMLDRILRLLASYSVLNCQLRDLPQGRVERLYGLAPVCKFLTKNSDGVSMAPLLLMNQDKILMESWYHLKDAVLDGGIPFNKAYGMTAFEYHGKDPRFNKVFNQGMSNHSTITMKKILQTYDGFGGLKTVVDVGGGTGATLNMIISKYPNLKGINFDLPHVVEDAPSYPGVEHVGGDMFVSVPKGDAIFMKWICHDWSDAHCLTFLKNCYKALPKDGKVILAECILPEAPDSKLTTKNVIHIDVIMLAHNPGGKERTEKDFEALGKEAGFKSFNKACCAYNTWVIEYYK",
  "assay": "inhibition of N-acetylserotonin methylation",
  "format": "biochemical",
  "details": "2.0 mM N-acetylserotonin; caffeic acid is itself a substrate (competing substrate)",
  "data": [
    {"smiles": "O=C(O)/C=C/c1ccc(O)c(O)c1", "note": "[caffeic acid]", "values": [
      {"measurement": "% reduction in activity at 1.0 mM", "value": 31.80, "unit": "%"}
    ]}
  ]
}
